# Experiments:
# human orexin-2 receptor = human orexin-2 receptor (Homo sapiens (Human), UniProt O43614); experiment: FLIPR Ca2+ Flux Assay, hOX2R; type: cell-based; conditions: CHO cells expressing the receptor; agonist Ala-6,12 human orexin-A
# Description: The utility of the compounds in accordance with the present invention as orexin receptor OX1R and/or OX2R antagonists may be readily determined without undue experimentation by methodology well known in the art, including the “FLIPR Ca^2+ Flux Assay” (Okumura et al., Biochem. Biophys. Res. Comm. 280:976-981, 2001). In a typical experiment the OX1 and OX2 receptor antagonistic activity of the compounds of the present invention was determined in accordance with the following experimental method. For intracellular calcium measurements, Chinese hamster ovary (CHO) cells expressing the rat orexin-1 receptor or the human orexin-2 receptor, are grown in Iscove's modified DMEM containing 2 mM L-glutamine, […], 1% hypoxanthine-thymidine supplement, 100 U/ml penicillin, 100 μg/ml streptomycin and 10% heat-inactivated fetal calf serum (FCS). The cells are seeded at 20,000 cells/well into Becton-Dickinson black 384-well clear bottom sterile plates coated with poly-D-lysine. All reagents were from GIBCO-Invitrogen Corp. The seeded plates are incubated overnight at 37° C. and 5% CO2. Ala-6,12 human orexin-A as the agonist is prepared as a 1 mM stock solution in 1% bovine serum albumin (BSA) and diluted in assay buffer (HBSS containing 20 mM HEPES, 0.1% BSA and 2.5 mM probenecid, pH7.4) for use in the assay at a final concentration of 70 pM. Test compounds are prepared as 10 mM stock solution in DMSO, then diluted in 384-well plates, first in DMSO, then assay buffer. On the day of the assay, cells are washed 3 times with 100 μl assay buffer and then incubated for 60 min (37° C., 5% CO2) in 60 μl assay buffer containing 1 μM Fluo-4AM ester, 0.02% pluronic acid, and 1% BSA. The dye loading solution is then aspirated and cells are washed 3 times with 100 μl assay buffer. 30 μl of that same buffer is left in each well. Within the Fluorescent Imaging Plate Reader (FLIPR, Molecular Devices), test compounds are added to the plate in a volume of 25 μl, incubated for 5 min and finally 25 μl of agonist is added. Fluorescence is measured for each well at 1 second intervals for 5 minutes and the height of each fluorescence peak is compared to the height of the fluorescence peak induced by […] Ala-6,12 orexin-A with buffer in place of antagonist. For each antagonist, IC50 value (the concentration of compound needed to inhibit 50% of the agonist response) is determined. Alternatively, compound potency can be assessed by a radioligand binding assay (described in Bergman et. al. Bioorg. Med. Chem. Lett. 2008, 18, 1425-1430) in which the inhibition constant (Ki) is determined in membranes prepared from CHO cells expressing either the OX1 or OX2 receptor. The intrinsic orexin receptor antagonist activity of a compound which may be used in the present invention may be determined by these assays.
# [1] = biological target: hOX1R (orexin-1 receptor) (Homo sapiens, UniProt O43613); experiment: FLIPR Ca2+ Flux Assay, hOX1R; type: cell-based; conditions: CHO cells expressing the receptor; agonist Ala-6,12 human orexin-A
# Sequence of human orexin-2 receptor (O43614 whole entry): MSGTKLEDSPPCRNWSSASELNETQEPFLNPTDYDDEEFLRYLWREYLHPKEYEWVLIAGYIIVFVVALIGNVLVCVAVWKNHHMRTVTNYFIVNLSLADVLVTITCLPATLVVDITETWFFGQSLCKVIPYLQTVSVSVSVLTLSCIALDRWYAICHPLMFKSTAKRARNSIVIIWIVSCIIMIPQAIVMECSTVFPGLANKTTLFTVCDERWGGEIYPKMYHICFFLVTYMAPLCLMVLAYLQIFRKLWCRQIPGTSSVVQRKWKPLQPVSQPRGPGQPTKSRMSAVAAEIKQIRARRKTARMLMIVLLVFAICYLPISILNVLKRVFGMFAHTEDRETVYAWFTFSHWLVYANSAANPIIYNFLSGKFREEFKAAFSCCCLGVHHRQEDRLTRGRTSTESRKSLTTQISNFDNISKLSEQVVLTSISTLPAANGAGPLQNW
SMILES,IC50 (human orexin-2 receptor),IC50 [1]
"C[C@@H]1CC[C@@H](c2noc(C3CC3)n2)CN1C(=O)c1ccccc1-n1nccn1 [Example 1, (2R,5R)-5-(5-Cyclopropyl-1,2,4-oxadiazol-3-yl)-2-methyl-1-{[2-(2H-1,2,3-triazol-2-yl)phenyl]carbonyl}piperidine]",329 nM,> 10 µM
"C[C@@H]1CC[C@@H](c2noc(C(C)(C)C)n2)CN1C(=O)c1ccccc1-n1nccn1 [Example 2, (2R,5R)-5-(5-tert-butyl-1,2,4-oxadiazol-3-yl)-2-methyl-1-{[2-(2H-1,2,3-triazol-2-yl)phenyl]carbonyl}piperidine]",29 nM,0.516 µM
"CCc1nc([C@@H]2CC[C@@H](C)N(C(=O)c3ccccc3-n3nccn3)C2)no1 [Example 3, (2R,5R)-5-(5-ethyl-1,2,4-oxadiazol-3-yl)-2-methyl-1-{[2-(2H-1,2,3-triazol-2-yl)phenyl]carbonyl}piperidine]",315 nM,> 10 µM
"CC(C)c1nc([C@@H]2CC[C@@H](C)N(C(=O)c3ccccc3-n3nccn3)C2)no1 [Example 4, (2R,5R)-2-methyl-5-[5-(1-methylethyl)-1,2,4-oxadiazol-3-yl]-1-{[2-(2H-1,2,3-triazol-2-yl)phenyl]carbonyl}piperidine]",28 nM,0.699 µM
"C[C@@H]1CC[C@@H](c2noc(C(C)(C)O)n2)CN1C(=O)c1ccccc1-n1nccn1 [Example 5, 2-{3-[(3R,6R)-6-Methyl-1-{[2-(2H-1,2,3-triazol-2-yl)phenyl]carbonyl}piperidin-3-yl]-1,2,4-oxadiazol-5-yl}propan-2-ol]",19 nM,3.18 µM
"C[C@@H]1CC[C@@H](c2noc([C@](C)(O)C(F)(F)F)n2)CN1C(=O)c1ccccc1-n1nccn1 [Example 6, (2S)-1,1,1-trifluoro-2-{3-[(3R,6R)-6-methyl-1-{[2-(2H-1,2,3-triazol-2-yl)phenyl]carbonyl}piperidin-3-yl]-1,2,4-oxadiazol-5-yl}propan-2-ol]",18 nM,0.288 µM
"C[C@@H]1CC[C@@H](c2noc([C@H](O)C(F)(F)F)n2)CN1C(=O)c1ccccc1-n1nccn1 [Example 7, (1S)-2,2,2-trifluoro-1-{3-[(3R,6R)-6-methyl-1-{[2-(2H-1,2,3-triazol-2-yl)phenyl]carbonyl}piperidin-3-yl]-1,2,4-oxadiazol-5-yl}ethanol]",22 nM,0.456 µM
"COC(C)(C)c1nc([C@@H]2CC[C@@H](C)N(C(=O)c3ccccc3-n3nccn3)C2)no1 [Example 8, (2R,5R)-5-[5-(1-Methoxy-1-methylethyl)-1,2,4-oxadiazol-3-yl]-2-methyl-1-{[2-(2H-1,2,3-triazol-2-yl)phenyl]carbonyl}piperidine]",98 nM,3.7 µM
"C[C@@H]1CC[C@@H](c2noc([C@@H](O)C(F)(F)F)n2)CN1C(=O)c1ccccc1-n1nccn1 [Example 9, (1R)-2,2,2-Trifluoro-1-{3-[(3R,6R)-6-methyl-1-{[2-(2H-1,2,3-triazol-2-yl)phenyl]carbonyl}piperidin-3-yl]-1,2,4-oxadiazol-5-yl}ethanol]",77 nM,1.01 µM
"C[C@@H]1CC[C@@H](c2noc([C@@](C)(O)C(F)(F)F)n2)CN1C(=O)c1ccccc1-n1nccn1 [Example 10, (2R)-1,1,1-Trifluoro-2-{3-[(3R,6R)-6-methyl-1-{[2-(2H-1,2,3-triazol-2-yl)phenyl]carbonyl}piperidin-3-yl]-1,2,4-oxadiazol-5-yl}propan-2-ol]",97 nM,2.24 µM
"C[C@@H]1CC[C@@H](c2noc(C(C)(C)O)n2)CN1C(=O)c1ccccc1C1(C#N)CC1 [Example 11, 1-[2-({(2R,5R)-5-[5-(1-hydroxy-1-methylethyl)-1,2,4-oxadiazol-3-yl]-2-methylpiperidin-1-yl}carbonyl)phenyl]cyclopropanecarbonitrile]",22 nM,2.29 µM
"C[C@@H]1CC[C@@H](c2noc(C(C)(C)O)n2)CN1C(=O)c1ccccc1-n1ncnn1 [Example 12, 2-{3-[(3R,6R)-6-methyl-1-{[2-(2H-tetrazol-2-yl)phenyl]carbonyl}piperidin-3-yl]-1,2,4-oxadiazol-5-yl}propan-2-ol]",184 nM,> 10 µM
"C[C@@H]1CC[C@@H](c2noc(C(C)(C)O)n2)CN1C(=O)c1ccsc1-n1nccn1 [Example 13, 2-{3-[(3R,6R)-6-methyl-1-{[2-(2H-1,2,3-triazol-2-yl)thiophen-3-yl]carbonyl}piperidin-3-yl]-1,2,4-oxadiazol-5-yl}propan-2-ol]",39 nM,> 10 µM
"C[C@@H]1CC[C@@H](c2noc(C(C)(C)O)n2)CN1C(=O)c1cscc1-n1nccn1 [Example 14, 2-{3-[(3R,6R)-6-methyl-1-{[4-(2H-1,2,3-triazol-2-yl)thiophen-3-yl]carbonyl}piperidin-3-yl]-1,2,4-oxadiazol-5-yl}propan-2-ol]",48 nM,> 10 µM
"C[C@@H]1CC[C@@H](c2noc(C(C)(C)O)n2)CN1C(=O)c1ccccc1OC(F)(F)F [Example 15, 2-{3-[(3R,6R)-6-methyl-1-{[2-(trifluoromethoxy)phenyl]carbonyl}piperidin-3-yl]-1,2,4-oxadiazol-5-yl}propan-2-ol]",86 nM,> 10 µM
"C[C@@H]1CC[C@@H](c2noc(C(C)(C)O)n2)CN1C(=O)c1cccnc1OCC(F)(F)F [Example 16, 2-{3-[(3R,6R)-6-methyl-1-{[2-(2,2,2-trifluoroethoxy)pyridin-3-yl]carbonyl}piperidin-3-yl]-1,2,4-oxadiazol-5-yl}propan-2-ol]",87 nM,> 10 µM
"CC(C)Oc1ncccc1C(=O)N1C[C@H](c2noc(C(C)(C)O)n2)CC[C@H]1C [Example 17, 2-{3-[(3R,6R)-6-methyl-1-{[2-(1-methylethoxy)pyridin-3-yl]carbonyl}piperidin-3-yl]-1,2,4-oxadiazol-5-yl}propan-2-ol]",219 nM,> 10 µM
"C[C@@H]1CC[C@@H](c2noc(C(C)(C)O)n2)CN1C(=O)c1ccccc1OC(F)F [Example 18, 2-{3-[(3R,6R)-1-{[2-(difluoromethoxy)phenyl]carbonyl}-6-methylpiperidin-3-yl]-1,2,4-oxadiazol-5-yl}propan-2-ol]",140 nM,> 10 µM
"CCOc1ccccc1C(=O)N1C[C@H](c2noc(C(C)(C)O)n2)CC[C@H]1C [Example 19, 2-(3-{(3R,6R)-1-[(2-ethoxyphenyl)carbonyl]-6-methylpiperidin-3-yl}-1,2,4-oxadiazol-5-yl)propan-2-ol]",124 nM,> 10 µM
"COC(=O)c1ccccc1C(=O)N1C[C@H](c2noc(C(C)(C)O)n2)CC[C@H]1C [Example 20, methyl 2-({(2R,5R)-5-[5-(1-hydroxy-1-methylethyl)-1,2,4-oxadiazol-3-yl]-2-methylpiperidin-1-yl}carbonyl)benzoate]",97 nM,> 10 µM
"C[C@@H]1CC[C@@H](c2noc(C(C)(C)O)n2)CN1C(=O)c1ccc(F)cc1-n1nccn1 [Example 21, 2-{3-[(3R,6R)-1-{[4-Fluoro-2-(2H-1,2,3-triazol-2-yl)phenyl]carbonyl}-6-methylpiperidin-3-yl]-1,2,4-oxadiazol-5-yl}propan-2-ol]",44 nM,> 10 µM
"C[C@@H]1CC[C@@H](c2noc(C(C)(C)O)n2)CN1C(=O)c1ccsc1-c1ncccn1 [Example 22, 2-(3-{(3R,6R)-6-methyl-1-[(2-pyrimidin-2-ylthiophen-3-yl)carbonyl]piperidin-3-yl}-1,2,4-oxadiazol-5-yl)propan-2-ol]",61 nM,> 10 µM
"C[C@@H]1CC[C@@H](c2noc(C(C)(C)O)n2)CN1C(=O)c1ccccc1-c1ncccn1 [Example 23, 2-(3-{(3R,6R)-6-Methyl-1-[(2-pyrimidin-2-ylphenyl)carbonyl]piperidin-3-yl}-1,2,4-oxadiazol-5-yl)propan-2-ol]",63 nM,> 10 µM
"C[C@@H]1CC[C@@H](c2nsc(C(C)(C)O)n2)CN1C(=O)c1cccnc1OCC(F)(F)F [Example 38, 2-{3-[(3R,6R)-6-methyl-1-{[2-(2,2,2-trifluoroethoxy)pyridin-3-yl]carbonyl}piperidin-3-yl]-1,2,4-thiadiazol-5-yl}propan-2-ol]",124 nM,–

# Source: US10308645B2, “Piperidine oxadiazole and thiadiazole orexin receptor antagonists” (MERCK SHARP & DOHME CORP., priority 2014, dated 2019)
